Source: the supplement of paper PMC11208160

Assay: recombinant barcode read abundance after kanamycin selection (control-corrected) (log10(CPM+1)); higher = more efficient recombination; sequences stand for … in AGTGCAGAGAAAATCGGCCAGTTTTCTCTGCCTGCAGTCCGCATGCCGT…AGATTTATGCAGCGGACTGCCTTTCTCCCAAAGTGATAAACCGGACAGTATCATGGACCGGTTTTCCCGGTAATCCGTATTTGCAAGGTTGGTTTCACT; site = the 11-nt target
Method in brief: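 Pooled E. coli screen pairing targets with IS621 bridge RNA target-binding loops. Each oligo (promoter, target, barcode, J23119-driven first 104 bridge RNA bases) was Gibson-cloned into a vector with the remaining 73 bp and T7-inducible recombinase, then co-electroporated with a donor plasmid. Two replicates each were plated on chloramphenicol/ampicillin LB agar (control) or chloramphenicol/ampicillin/kanamycin with 0.1 mM IPTG. Recombination efficiency is recombinant-junction barcode counts as CPM, averaged, control-corrected, reported as log10(CPM+1).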
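Further: IS621 recombinase and bridge RNA in Escherichia coli cells.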

Sequence	recombinant barcode read abundance (log10)
TAGTGGTCTTGGGTTCTAACCTGTTGCTA (site TAGTGGTCTAT)	0.403
TAGTGGTCTTGGGTTCTAACCTGTTGCTA (site TAGTGGTCTTA)	1.01
TAGTTTCCTTGGGTTCTAACCTGTTGCGT (site TAGTATCCTAC)	0.3
TAGTTTCCTTGGGTTCTAACCTGTTGCGT (site TAGTCTCCTAC)	0.0219
TAGTTTCCTTGGGTTCTAACCTGTTGCGT (site TAGTGTCCTAC)	0.206
TAGTTTCCTTGGGTTCTAACCTGTTGCGT (site TAGTTTCCTAC)	0.875
TAGTTTGCTTGGGTTCTAACCTGTTGCGA (site CGTCGGACTCT)	0.00829
TAGTTTGCTTGGGTTCTAACCTGTTGCGA (site TAGTTTGCTTC)	0.171
TATAATTCTTGGGTTCTAACCTGTTGCTT (site TATAATTCTAA)	0.164
TATAATTCTTGGGTTCTAACCTGTTGCTT (site TTCAATTCTAA)	0.146
TATACAACTTGGGTTCTAACCTGTTGCCT (site TATAAAACTAG)	0.089
TATACAACTTGGGTTCTAACCTGTTGCCT (site TATACAACTAG)	0.112
TATACAACTTGGGTTCTAACCTGTTGCCT (site TATAGAACTAG)	0.0301
TATACAACTTGGGTTCTAACCTGTTGCCT (site TATATAACTAG)	0.0752
TATACAGCTTGGGTTCTAACCTGTTGCCT (site TAAACAGCTAG)	0.156
TATACAGCTTGGGTTCTAACCTGTTGCCT (site TACACAGCTAG)	0.192
TATACAGCTTGGGTTCTAACCTGTTGCCT (site TAGACAGCTAG)	0.0546
TATACAGCTTGGGTTCTAACCTGTTGCCT (site TATACAGCTAG)	0.592
TATACTACTTGGGTTCTAACCTGTTGCCT (site TATACTACTAG)	0.0122
TATACTACTTGGGTTCTAACCTGTTGCCT (site TATACTGCTAG)	0.0258
TATACTACTTGGGTTCTAACCTGTTGCTT (site CACACTACTAA)	0.0534
TATACTACTTGGGTTCTAACCTGTTGCTT (site TATACTACTAA)	0.0375

Sequence	recombinant barcode read abundance (log10)
TATAGGACTTGGGTTCTAACCTGTTGCGT (site GATAGGACTAC)	0.0102
TATAGGACTTGGGTTCTAACCTGTTGCGT (site TATAGGACTAC)	2.03
TATAGTACTTGGGTTCTAACCTGTTGCCT (site TATAGTACTAG)	0.152
TATAGTACTTGGGTTCTAACCTGTTGCCT (site TATTGTCCTAG)	0.0337
TATCCATCTTGGGTTCTAACCTGTTGCCT (site TAACCATCTAG)	0.0695
TATCCATCTTGGGTTCTAACCTGTTGCCT (site TACCCATCTAG)	0.0382
TATCCATCTTGGGTTCTAACCTGTTGCCT (site TAGCCATCTAG)	0.0545
TATCCATCTTGGGTTCTAACCTGTTGCCT (site TATCCATCTAG)	0.618
TATGAGGCTTGGGTTCTAACCTGTTGCCT (site TATGAGGCTAG)	0.433
TATGAGGCTTGGGTTCTAACCTGTTGCCT (site TATGCGGCTAG)	0.26
TATGAGGCTTGGGTTCTAACCTGTTGCCT (site TATGGGGCTAG)	0.0447
TATGAGGCTTGGGTTCTAACCTGTTGCCT (site TATGTGGCTAG)	0.162
TATGGAGCTTGGGTTCTAACCTGTTGCAG (site GTTGGAGCTCT)	1.14
TATGGAGCTTGGGTTCTAACCTGTTGCAG (site TATGGAGCTCT)	2.34
TATGTAGCTTGGGTTCTAACCTGTTGCCC (site TATGTAGCTAG)	0.226
TATGTAGCTTGGGTTCTAACCTGTTGCCC (site TATGTAGCTCG)	0.0813
TATGTAGCTTGGGTTCTAACCTGTTGCCC (site TATGTAGCTGG)	1.36
TATGTAGCTTGGGTTCTAACCTGTTGCCC (site TATGTAGCTTG)	0.239
TATTATACTTGGGTTCTAACCTGTTGCAT (site TATTATACTAA)	0.0319
TATTATACTTGGGTTCTAACCTGTTGCAT (site TATTATACTAC)	0.0379
TATTATACTTGGGTTCTAACCTGTTGCAT (site TATTATACTAG)	0.0602
TATTATACTTGGGTTCTAACCTGTTGCAT (site TATTATACTAT)	0.167

Sequence	recombinant barcode read abundance (log10)
TATTATACTTGGGTTCTAACCTGTTGCGT (site TATTATACTAA)	0.116
TATTATACTTGGGTTCTAACCTGTTGCGT (site TATTATACTAC)	0.335
TATTATACTTGGGTTCTAACCTGTTGCGT (site TATTATACTAG)	0.0727
TATTATACTTGGGTTCTAACCTGTTGCGT (site TATTATACTAT)	0.16
TATTATACTTGGGTTCTAACCTGTTGCTT (site TATTATACTAA)	0.0915
TATTATACTTGGGTTCTAACCTGTTGCTT (site TATTATACTAC)	0.116
TATTATACTTGGGTTCTAACCTGTTGCTT (site TATTATACTAG)	0.245
TATTATACTTGGGTTCTAACCTGTTGCTT (site TATTATACTAT)	0.34
TATTCTACTTGGGTTCTAACCTGTTGCGC (site TATTCTACTAC)	0.0305
TATTCTACTTGGGTTCTAACCTGTTGCGC (site TATTCTACTCC)	0.0687
TATTCTACTTGGGTTCTAACCTGTTGCGC (site TATTCTACTGC)	0.0329
TATTCTACTTGGGTTCTAACCTGTTGCGC (site TATTCTACTTC)	0.0215
TATTGATCTTGGGTTCTAACCTGTTGCCT (site TAATGATCTAG)	0.347
TATTGATCTTGGGTTCTAACCTGTTGCCT (site TACTGATCTAG)	0.162
TATTGATCTTGGGTTCTAACCTGTTGCCT (site TAGTGATCTAG)	0.0784
TATTGATCTTGGGTTCTAACCTGTTGCCT (site TATTGATCTAG)	0.235
TATTGCCCTTGGGTTCTAACCTGTTGCCT (site TAATGCCCTAG)	0.203
TATTGCCCTTGGGTTCTAACCTGTTGCCT (site TATTGCCCTAG)	0.117
TCAAACCCTTGGGTTCTAACCTGTTGCGG (site TCAAACCCTCC)	1.6
TCAAACCCTTGGGTTCTAACCTGTTGCGG (site TCCAACCCTCC)	0.292
TCAAACCCTTGGGTTCTAACCTGTTGCGG (site TCGAACCCTCC)	0.0489
TCAAACCCTTGGGTTCTAACCTGTTGCGG (site TCTAACCCTCC)	0.279

Sequence	recombinant barcode read abundance (log10)
TCAAGACCTTGGGTTCTAACCTGTTGCCG (site TCAAGACCTAG)	0.179
TCAAGACCTTGGGTTCTAACCTGTTGCCG (site TCAAGACCTCG)	0.461
TCACAGGCTTGGGTTCTAACCTGTTGCCG (site TCACAGGCTCG)	0.361
TCACAGGCTTGGGTTCTAACCTGTTGCCG (site TCTCAGGCTCG)	0.377
TCACGGACTTGGGTTCTAACCTGTTGCCT (site TCACGGACTAG)	1.1
TCACGGACTTGGGTTCTAACCTGTTGCCT (site TCCCGGACTAG)	0.101
TCACGGACTTGGGTTCTAACCTGTTGCCT (site TCGCGGACTAG)	0.0352
TCACGGACTTGGGTTCTAACCTGTTGCCT (site TCTCGGACTAG)	0.101
TCACGTCCTTGGGTTCTAACCTGTTGCGT (site TCACGTCCTAA)	0.0145
TCACGTCCTTGGGTTCTAACCTGTTGCGT (site TCACGTCCTAC)	1.3
TCACGTCCTTGGGTTCTAACCTGTTGCGT (site TCACGTCCTAG)	0.0596
TCACGTCCTTGGGTTCTAACCTGTTGCGT (site TCACGTCCTAT)	0.295
TCACGTCCTTGGGTTCTAACCTGTTGCTT (site TCACGTCCTAA)	0.137
TCACGTCCTTGGGTTCTAACCTGTTGCTT (site TCACGTCCTAC)	0.0167
TCACGTCCTTGGGTTCTAACCTGTTGCTT (site TCACGTCCTAG)	0.262
TCACGTCCTTGGGTTCTAACCTGTTGCTT (site TCACGTCCTAT)	0.145
TCAGAATCTTGGGTTCTAACCTGTTGCCT (site TCAGAATCTAG)	0.667
TCAGAATCTTGGGTTCTAACCTGTTGCCT (site TCAGCATCTAG)	0
TCAGAATCTTGGGTTCTAACCTGTTGCCT (site TCAGGATCTAG)	0.371
TCAGAATCTTGGGTTCTAACCTGTTGCCT (site TCAGTATCTAG)	0.0618
